Measured values from patent US9586936B2, “Heteroarylamine derivatives as protein kinase inhibitors” (KOREA INSTITUTE OF SCIENCE AND TECHNOLOGY, priority 2014, dated 2017).

What was measured:
[1] = target: T1, CYP1A2 (Homo sapiens, UniProt P05177); assay: inhibition activity against CYPs (cytochromes P450); type: in vitro ADME
T1 sequence (P05177 1-516): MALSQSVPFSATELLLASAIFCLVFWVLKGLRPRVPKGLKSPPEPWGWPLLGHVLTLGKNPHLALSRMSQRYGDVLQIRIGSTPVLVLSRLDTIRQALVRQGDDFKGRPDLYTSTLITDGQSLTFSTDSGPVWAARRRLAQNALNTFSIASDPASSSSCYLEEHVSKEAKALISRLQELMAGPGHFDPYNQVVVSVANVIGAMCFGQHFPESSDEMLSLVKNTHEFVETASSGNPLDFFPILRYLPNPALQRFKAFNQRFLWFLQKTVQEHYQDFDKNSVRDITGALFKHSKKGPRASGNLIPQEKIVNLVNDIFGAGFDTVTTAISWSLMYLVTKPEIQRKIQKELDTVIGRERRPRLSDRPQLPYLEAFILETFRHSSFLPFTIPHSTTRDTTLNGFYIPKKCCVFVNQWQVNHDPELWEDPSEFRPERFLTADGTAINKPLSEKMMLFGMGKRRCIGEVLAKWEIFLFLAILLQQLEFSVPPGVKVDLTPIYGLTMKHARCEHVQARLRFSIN
Description: (§1) The inhibition activity (inhibition rate, %) of N-(2,6-dichloro-3,5-dimethoxyphenyl)-1-(6-((4-(4-ethylpiperazin-1-yl)phenyl)amino)pyrimidin-4-yl)-1H-benz[d]imidazol-2-amine synthesized in Example 1, as a representative compound of the present invention, against CYPs (cytochromes P450) was measured in order to investigate the risk of drug side effects.

[2] = target: CYP2C19 (Homo sapiens, UniProt P33261); assay: as above; type: in vitro ADME
Description: as §1

[3] = target: CYP2C9 (Homo sapiens, UniProt P11712); assay: as above; type: in vitro ADME
Description: as §1

[4] = target: CYP3A4 (Homo sapiens, UniProt P08684); assay: as above; type: in vitro ADME
Description: as §1

[5] = target: CYP2D6 (Homo sapiens, UniProt P10635); assay: as above; type: in vitro ADME
Description: as §1

[6] = microsomal stability; type: in vitro ADME, Mouse; details: for microsomal stability (% at time) / microsomal stability (% at time), Negative control (excluding NADPH): Mouse
Description: (§2) The microsomal stability of N-(2,6-dichloro-3,5-dimethoxyphenyl)-1-(6-((4-(4-ethylpiperazin-1-yl)phenyl)amino)pyrimidin-4-yl)-1H-benz[d]imidazol-2-amine synthesized in Example 1, as a representative compound of the present invention, was evaluated.

[7] = microsomal stability; type: in vitro ADME, Rat; details: for microsomal stability (% at time): Rat
Description: as §2

[8] = system: bladder cancer cell line RT112; assay: inhibition of proliferation of cancer cells; type: cell-based; details: Homo sapiens, RT-112, read-out: Ability of inhibiting proliferation of RT112 (GI50)
Description: The ability of the compound of the present invention of inhibiting the proliferation of the bladder cancer cell line RT112 was determined as the GI50 value.

[9] = in-vivo PK profile, mouse PK; details: ICR mice
Description: (§3) The in-vivo PK profile (mouse PK/ICR mice and rat PK/Sprague-Dawley rat) of N-(2,6-dichloro-3,5-dimethoxyphenyl)-1-(6-((4-(4-ethylpiperazin-1-yl)phenyl)amino)pyrimidin-4-yl)-1H-benz[d]imidazol-2-amine synthesized in Example 1 is as follows.

[10] = in-vivo PK profile, rat PK; details: Sprague-Dawley rat; for MRT inf: read-out: MRT(0-∞)
Description: as §3

[11] = from 0.1-50 μM, unit from the table's concentration head, read-out: Expected IC50

Chain of CYP3A4 (P08684 whole entry): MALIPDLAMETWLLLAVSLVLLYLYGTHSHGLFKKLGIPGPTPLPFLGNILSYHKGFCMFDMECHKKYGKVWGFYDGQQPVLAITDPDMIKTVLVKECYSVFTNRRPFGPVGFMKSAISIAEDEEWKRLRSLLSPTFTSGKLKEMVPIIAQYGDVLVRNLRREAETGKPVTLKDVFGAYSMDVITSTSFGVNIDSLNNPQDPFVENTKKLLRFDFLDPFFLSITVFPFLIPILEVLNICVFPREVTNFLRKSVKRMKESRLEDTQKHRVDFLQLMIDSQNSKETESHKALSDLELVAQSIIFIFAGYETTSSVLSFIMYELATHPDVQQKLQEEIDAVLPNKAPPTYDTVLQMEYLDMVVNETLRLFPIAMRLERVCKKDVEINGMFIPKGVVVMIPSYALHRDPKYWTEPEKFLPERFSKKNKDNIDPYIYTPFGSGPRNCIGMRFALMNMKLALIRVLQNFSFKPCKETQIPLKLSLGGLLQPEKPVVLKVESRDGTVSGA
Chain of CYP2C19 (P33261 whole entry): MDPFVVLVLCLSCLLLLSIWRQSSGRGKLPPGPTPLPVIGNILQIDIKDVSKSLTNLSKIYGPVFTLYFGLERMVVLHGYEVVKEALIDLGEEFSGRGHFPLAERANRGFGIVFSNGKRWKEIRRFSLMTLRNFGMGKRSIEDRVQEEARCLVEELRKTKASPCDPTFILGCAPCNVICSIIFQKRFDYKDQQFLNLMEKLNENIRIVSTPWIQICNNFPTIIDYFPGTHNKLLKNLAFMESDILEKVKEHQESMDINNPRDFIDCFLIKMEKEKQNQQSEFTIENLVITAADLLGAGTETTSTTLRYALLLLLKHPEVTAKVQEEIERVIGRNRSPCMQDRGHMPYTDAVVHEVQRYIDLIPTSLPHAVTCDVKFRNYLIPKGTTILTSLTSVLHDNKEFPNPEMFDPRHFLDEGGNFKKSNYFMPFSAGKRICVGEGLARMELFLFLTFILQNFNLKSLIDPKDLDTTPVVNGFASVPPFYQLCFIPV
Chain of CYP2D6 (P10635 whole entry): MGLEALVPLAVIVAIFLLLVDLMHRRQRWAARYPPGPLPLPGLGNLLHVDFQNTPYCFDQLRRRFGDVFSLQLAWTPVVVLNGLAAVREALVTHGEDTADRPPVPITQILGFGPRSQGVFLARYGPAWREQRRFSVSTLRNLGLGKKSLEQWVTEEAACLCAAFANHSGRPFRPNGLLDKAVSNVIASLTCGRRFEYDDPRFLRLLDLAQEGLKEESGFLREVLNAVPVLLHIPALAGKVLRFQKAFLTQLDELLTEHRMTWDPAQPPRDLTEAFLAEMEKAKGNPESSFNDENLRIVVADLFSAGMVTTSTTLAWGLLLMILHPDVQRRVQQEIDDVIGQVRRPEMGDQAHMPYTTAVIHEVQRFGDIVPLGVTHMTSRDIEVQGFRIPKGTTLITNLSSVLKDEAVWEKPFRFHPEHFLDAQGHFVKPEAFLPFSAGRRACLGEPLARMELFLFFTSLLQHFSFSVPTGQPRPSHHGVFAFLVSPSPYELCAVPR
Chain of CYP2C9 (P11712 whole entry): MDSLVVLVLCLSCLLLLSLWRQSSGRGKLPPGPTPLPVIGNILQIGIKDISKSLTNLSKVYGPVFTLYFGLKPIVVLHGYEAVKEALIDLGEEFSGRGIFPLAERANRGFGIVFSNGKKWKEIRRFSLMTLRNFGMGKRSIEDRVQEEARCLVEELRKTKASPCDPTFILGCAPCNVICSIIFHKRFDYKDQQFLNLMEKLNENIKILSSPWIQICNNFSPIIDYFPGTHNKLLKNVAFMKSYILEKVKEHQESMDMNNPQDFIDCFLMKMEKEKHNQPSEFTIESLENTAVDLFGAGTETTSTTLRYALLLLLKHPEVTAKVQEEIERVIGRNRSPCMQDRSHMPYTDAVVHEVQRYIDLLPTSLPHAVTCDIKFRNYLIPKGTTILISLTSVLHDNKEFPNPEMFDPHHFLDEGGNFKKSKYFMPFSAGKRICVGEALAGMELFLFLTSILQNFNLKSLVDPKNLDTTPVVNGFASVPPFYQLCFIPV

IC50 [1, 11]: > 50 µM | inhibition at 0.1 µM ([1]; human, concentration 0.1 μM): 5.36% | inhibition at 0.5 µM ([1]; human, concentration 0.5 μM): 4.67% | inhibition at 5 µM ([1]; human, concentration 5 μM): -1.9% | inhibition at 10 µM ([1]; human, concentration 10 μM): -3.46% | inhibition at 25 µM ([1]; human, concentration 25 μM): -3.11% | inhibition at 50 µM ([1]; human, concentration 50 μM): 2.08% | inhibition activity against CYP, statement in words ([1]; summary of Table 5): no inhibition activity | inhibition at 10 µM ([2]; concentration 10 μM): 37.3% | IC50 [2, 11]: 16.6 µM | inhibition at 0.1 µM ([2]; human, concentration 0.1 μM): 2.72% | inhibition at 0.5 µM ([2]; human, concentration 0.5 μM): 3.23% | inhibition at 5 µM ([2]; human, concentration 5 μM): 30% | inhibition at 25 µM ([2]; human, concentration 25 μM): 66.1% | inhibition at 50 µM ([2]; human, concentration 50 μM): 68% | inhibition activity against CYP, statement in words ([2]; summary of Table 5): no inhibition activity | IC50 [3, 11]: 44.8 µM | inhibition at 0.1 µM ([3]; human, concentration 0.1 μM): 10.3% | inhibition at 0.5 µM ([3]; human, concentration 0.5 μM): 8.79% | inhibition at 5 µM ([3]; human, concentration 5 μM): 24.6% | inhibition at 10 µM ([3]; human, concentration 10 μM): 30% | inhibition at 25 µM ([3]; human, concentration 25 μM): 52.4% | inhibition at 50 µM ([3]; human, concentration 50 μM): 53.4% | inhibition activity against CYP, statement in words ([3]; summary of Table 5): no inhibition activity | inhibition at 10 µM ([4]; concentration 10 μM): 31.8% | IC50 [4, 11]: 32.4 µM | inhibition at 0.1 µM ([4]; human, concentration 0.1 μM): 3.09% | inhibition at 0.5 µM ([4]; human, concentration 0.5 μM): 3.7% | inhibition at 5 µM ([4]; human, concentration 5 μM): 24.4% | inhibition at 25 µM ([4]; human, concentration 25 μM): 49.7% | inhibition at 50 µM ([4]; human, concentration 50 μM): 55.5% | inhibition activity against CYP, statement in words ([4]; summary of Table 5): no inhibition activity | inhibition at 10 µM ([5]; concentration 10 μM): 6.12% | IC50 [5, 11]: > 50 µM | inhibition at 0.1 µM ([5]; human, concentration 0.1 μM): -3.15% | inhibition at 0.5 µM ([5]; human, concentration 0.5 μM): -4.76% | inhibition at 5 µM ([5]; human, concentration 5 μM): -2.56% | inhibition at 25 µM ([5]; human, concentration 25 μM): 13.6% | inhibition at 50 µM ([5]; human, concentration 50 μM): 13.4% | inhibition activity against CYP, statement in words ([5]; summary of Table 5): no inhibition activity | microsomal stability (% at time) ([6]; 0 min): 100.00% | microsomal stability (% at time), Negative control (excluding NADPH) ([6]; 0 min): 100.00% | microsomal stability (% at time) ([6]; 5 min): 62.73% | microsomal stability (% at time), Negative control (excluding NADPH) ([6]; 5 min): 103.56% | microsomal stability (% at time) ([6]; 10 min): 40.77% | microsomal stability (% at time), Negative control (excluding NADPH) ([6]; 10 min): 103.56% | microsomal stability (% at time) ([6]; 15 min): 29.27% | microsomal stability (% at time), Negative control (excluding NADPH) ([6]; 15 min): 102.67% | microsomal stability (% at time) ([6]; 30 min): 11.88% | microsomal stability (% at time), Negative control (excluding NADPH) ([6]; 30 min): 106.67% | microsomal stability (% at time) ([6]; 45 min): 3.87% | microsomal stability (% at time), Negative control (excluding NADPH) ([6]; 45 min): 106.67% | microsomal stability (% at time) ([6]; 60 min): 3.64% | microsomal stability (% at time), Negative control (excluding NADPH) ([6]; 60 min): 104.44% | half-life ([6]; microsomes, Mouse microsomal stability): 9.93 min | microsomal stability (% at time) ([7]; 0 min): 100.00% | microsomal stability (% at time) ([7]; 5 min): 95.53% | microsomal stability (% at time) ([7]; 10 min): 88.45% | microsomal stability (% at time) ([7]; 15 min): 82.61% | microsomal stability (% at time) ([7]; 30 min): 65.16% | microsomal stability (% at time) ([7]; 45 min): 45.27% | microsomal stability (% at time) ([7]; 60 min): 44.31% | half-life ([7]; microsomes, Rat microsomal stability): 0.659 h | GI50 [8]: < 1 µM | F* ([9]; PO 10 mg/kg): 23.44% | AUC(0-inf) ([9]; mouse, in vivo, IV 5 mg/kg): 350 ng·h/mL | AUC(0-t) ([9]; mouse, in vivo, IV 5 mg/kg): 322 ng·h/mL | Cmax ([9]; mouse, in vivo, IV 5 mg/kg): 111 ng/mL | Tmax ([9]; mouse, in vivo, IV 5 mg/kg): 0.083 h | clearance ([9]; mouse, in vivo, IV 5 mg/kg): 238 mL/min/kg | half-life ([9]; mouse, in vivo, IV 5 mg/kg): 1.83 h | MRT inf ([9]; mouse, in vivo, IV 5 mg/kg, read-out: MRT(0-∞)): 3.56 h | Vd ([9]; mouse, in vivo, IV 5 mg/kg, read-out: Vz): 37.7 L/kg | AUC(0-t) ([9]; mouse, in vivo, PO 10 mg/kg): 151 ng·h/mL | Cmax ([9]; mouse, in vivo, PO 10 mg/kg): 27.1 ng/mL | Tmax ([9]; mouse, in vivo, PO 10 mg/kg): 6 h | F* ([10]; PO 5 mg/kg): 13.46% | AUC(0-inf) ([10]; in vivo, IV 5 mg/kg): 884 ng·h/mL | AUC(0-t) ([10]; in vivo, IV 5 mg/kg): 844 ng·h/mL | Cmax ([10]; in vivo, IV 5 mg/kg): 271 ng/mL | Tmax ([10]; in vivo, IV 5 mg/kg): 0.083 h | clearance ([10]; in vivo, IV 5 mg/kg): 97.3 mL/min/kg | half-life ([10]; in vivo, IV 5 mg/kg): 5.75 h | MRT inf ([10]; in vivo, IV 5 mg/kg): 6.37 h | Vd ([10]; in vivo, IV 5 mg/kg, read-out: Vz): 48 L/kg | AUC(0-inf) ([10]; in vivo, PO 5 mg/kg): 652 ng·h/mL | AUC(0-t) ([10]; in vivo, PO 5 mg/kg): 129 ng·h/mL | Cmax ([10]; in vivo, PO 5 mg/kg): 11.6 ng/mL | Tmax ([10]; in vivo, PO 5 mg/kg): 5.33 h | half-life ([10]; in vivo, PO 5 mg/kg): 9.14 h | MRT inf ([10]; in vivo, PO 5 mg/kg): 12.6 h
SMILES: CCN1CCN(c2ccc(Nc3cc(-n4c(Nc5c(Cl)c(OC)cc(OC)c5Cl)nc5ccccc54)ncn3)cc2)CC1 [Example 1, N-(2,6-dichloro-3,5-dimethoxyphenyl)-1-(6-((4-(4-ethylpiperazin-1-yl)phenyl)amino)pyrimidin-4-yl)-1H-benz[d]imidazol-2-amine]
